What was measured:
Type in all cases: cell-based
[1] = target: T1, Smo D473H mutant (Homo sapiens, UniProt Q99835, D473H); experiment: Reporter assay of C3H10T1/2-Gli-Luc cells transfected with Smo D473H mutant, without SAG; conditions: C3H10T1/2 cells transfected with pLPCX-SMO-D473H, no SAG, 48 hr; read-out: Inhibition of C3H10T1/2-Gli-Luc-Smo-D473H [IC50
T1 construct: expressed in transfected cells; host or cells: C3H10T1/2 cells (ATCC CCL-226), transient transfection with pLPCX-SMO-D473H
Experimental: (§1) A transient transfection system with a Smo wild type or a Smo D473H mutant was also used for compound screening. For the SMO inhibition experiments, cells were transfected with an additional 500 ng/well of wild-type or D473H-mutant type SMO construct (pLPCX-SMO or pLPCX-SMO-D473H). After 24 h, transfected cells were collected by trypsin treatment and re-plated in 96-well plates in an RPMI medium containing 0.5% FBS with a density of 1.5×10^4 cells/well. Compounds were dissolved in DMSO with serial dilutions and were then added to the assay plate. The assay plates were incubated at 37° C. for 48 hr.
(§2) Firefly luciferase and Renilla luciferase activity was determined using the Dual-Glo Luciferase reporter assay system (Promega) with a Victor3 plate reader (PerkinElmer Life Sciences). Firefly luciferase readings were normalized to Renilla luciferase to correct for transfection efficiency. Luminance reading for the C3H10T1/2-Gli-Luc assay was normalized based on DMSO control with SAG stimulation (100% pathway activity) and without SAG stimulation (0% pathway activity). IC50 values, defined as the inflection point of the logistic curve, were determined by nonlinear regression using the Prism 5 software (GraphPad).
(§3) The reporter assay of C3H10T1/2-Gli-Luc cells transfected with a wild-type, D473H mutant Smo mutant was carried out with the same protocol but without SAG stimulation. Luminance reading for the SMO inhibition experiments assay was normalized based on DMSO control (100% of the pathway activity) and a known Smo antagonist (ALLO-2 at 10 μM, 0% of the pathway activity).

[2] = system: hedgehog pathway (pGL3-7xGli-Luciferase reporter in C3H10T1/2 cells); experiment: Transient transfection of C3H10T1/2 and Gli-Luc reporter assay with SAG stimulation; conditions: Mus musculus, C3H 10T1/2, SAG 20 nM, 48 hr, read-out: Inhibition of Gli-Luc expression [IC50
Experimental: A cell-based screen for inhibitors of the hedgehog pathway was performed using a transient transfection system in C3H10T1/2 cells with pGL3-7xGli-Luciferase reporter plasmids C3H10T1/2 cells (ATCC, cat.#CCL-226) were seeded into 6-well plates at 8×10^4 cells/well in a BME medium containing 10% heat-inactivated FBS. Cells were transfected the next morning with 500 ng/well pGL3-7xGli-Luciferase reporter plasmids and 100 ng/well pRL-TK Renilla luciferase reporter plasmids (Promega)using GeneJuice transfection reagent (Novagene). After 24 h, transfected cells were collected by trypsin treatment and re-plated in 96-well plates in an RPMI medium containing 0.5% FBS with a density of 1.5×10^4 cells/well. Compounds were dissolved in DMSO with serial dilutions and were then added to the assay plate. SAG (Hh-Ag 1.3) (Santa Cruz) was added to the assay plated for a final concentration 20 nM. The assay plates were incubated at 37° C. for 48 hr.
as §2

[3] = target: T2, Smo wild type (Homo sapiens, UniProt Q99835); experiment: Reporter assay of C3H10T1/2-Gli-Luc cells transfected with wild-type Smo, without SAG; conditions: C3H10T1/2 cells transfected with pLPCX-SMO, no SAG, 48 hr; read-out: Inhibition of C3H10T1/2-Gli-Luc-Smo-WT [IC50
T2 construct: expressed in transfected cells; host or cells: C3H10T1/2 cells (ATCC CCL-226), transient transfection with pLPCX-SMO
T2 sequence (Q99835 28-787): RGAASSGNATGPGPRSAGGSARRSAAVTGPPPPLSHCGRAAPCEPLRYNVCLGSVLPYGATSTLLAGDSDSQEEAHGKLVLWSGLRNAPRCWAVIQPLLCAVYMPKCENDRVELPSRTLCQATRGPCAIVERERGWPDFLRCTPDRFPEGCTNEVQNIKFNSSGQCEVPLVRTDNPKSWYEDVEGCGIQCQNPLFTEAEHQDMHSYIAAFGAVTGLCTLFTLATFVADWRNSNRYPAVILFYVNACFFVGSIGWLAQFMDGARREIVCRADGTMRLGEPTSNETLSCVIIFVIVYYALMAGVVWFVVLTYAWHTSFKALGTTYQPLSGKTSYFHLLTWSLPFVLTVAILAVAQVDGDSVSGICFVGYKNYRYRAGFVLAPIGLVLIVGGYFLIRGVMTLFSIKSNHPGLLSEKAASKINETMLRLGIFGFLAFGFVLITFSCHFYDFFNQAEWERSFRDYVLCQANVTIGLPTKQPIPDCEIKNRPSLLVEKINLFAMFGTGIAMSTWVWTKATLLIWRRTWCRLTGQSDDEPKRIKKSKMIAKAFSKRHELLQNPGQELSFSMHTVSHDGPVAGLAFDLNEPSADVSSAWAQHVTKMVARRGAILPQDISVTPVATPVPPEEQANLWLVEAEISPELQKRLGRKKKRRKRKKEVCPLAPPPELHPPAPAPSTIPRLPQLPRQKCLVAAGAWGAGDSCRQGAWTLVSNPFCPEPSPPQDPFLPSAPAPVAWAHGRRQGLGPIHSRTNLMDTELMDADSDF
Experimental: as §1, §2, §3

T1 sequence (Q99835 28-787 D473H): as the sequence (Q99835 28-787) above, with D446H counted along it

Structure (SMILES) | IC50 [1] [nM] | IC50 [2] [nM] | IC50 [3] [nM]
CSc1cnc(Nc2ccc(C(=O)Nc3cc(CN4CCOCC4)ccc3C)cc2F)nc1-c1cnn(C)c1 [Compound 45, 3-Fluoro-N-(2-methyl-5-morpholin-4-ylmethyl-phenyl)-4-[4-(1-methyl-1H-pyrazol-4-yl)-5-methylsulfanyl-pyrimidin-2-ylamino]-benzamide] | < 100 | < 100 | < 100
CSc1cnc(Nc2ccc(C(=O)Nc3cc(CN4CCN(C)CC4)ccc3C)cc2F)nc1-c1cnn(C)c1 [Compound 46, 3-Fluoro-N-[2-methyl-5-(4-methyl-piperazin-1-ylmethyl)-phenyl]-4-[4-(1-methyl-1H-pyrazol-4-yl)-5-methylsulfanyl-pyrimidin-2-ylamino]-benzamide] | 100 to 1000 | < 100 | < 100
CCN(CC)Cc1ccc(C)c(NC(=O)c2ccc(Nc3ncc(SC)c(-c4ccc(F)cc4)n3)cc2)c1 [Compound 47, N-(5-Diethylaminomethyl-2-methyl-phenyl)-4-[4-(4-fluoro-phenyl)-5-methylsulfanyl-pyrimidin-2-ylamino]-benzamide] | 100 to 1000 | < 100 | < 100
CSc1cnc(Nc2ccc(C(=O)Nc3cc(CN4CCCCC4)ccc3C)cc2)nc1-c1ccc(F)cc1 [Compound 48, 4-[4-(4-Fluoro-phenyl)-5-methylsulfanyl-pyrimidin-2-ylamino]-N-(2-methyl-5-piperidin-1-ylmethyl-phenyl)-benzamide] | 100 to 1000 | < 100 | < 100
COc1cnc(Nc2ccc(C(=O)Nc3cc(CN4CCOCC4)ccc3C)cc2)nc1-c1ccc(C#N)cc1 [Compound 49, 4-[4-(4-Cyano-phenyl)-5-methoxy-pyrimidin-2-ylamino]-N-(2-methyl-5-morpholin-4-ylmethyl-phenyl)-benzamide] | > 1000 | 100 to 1000 | 100 to 1000
CCN(CC)Cc1ccc(C)c(NC(=O)c2ccc(Nc3ncc(OC)c(-c4ccc(C#N)cc4)n3)cc2)c1 [Compound 50, 4-[4-(4-Cyano-phenyl)-5-methoxy-pyrimidin-2-ylamino]-N-(5-diethylaminomethyl-2-methyl-phenyl)-benzamide] | 100 to 1000 | < 100 | < 100

Results, then the compound that gave them:

IC50 [1] [nM] | IC50 [2] [nM] | IC50 [3] [nM] | Structure (SMILES)
100 to 1000 | < 100 | < 100 | COc1cnc(Nc2ccc(C(=O)Nc3cc(CN4CCN(C)CC4)ccc3C)cc2)nc1-c1ccc(C#N)cc1 [Compound 51, 4-[4-(4-Cyano-phenyl)-5-methoxy-pyrimidin-2-ylamino]-N-[2-methyl-5-(4-methyl-piperazin-1-ylmethyl)-phenyl]-benzamide]
> 1000 | < 100 | < 100 | COc1cnc(Nc2ccc(C(=O)Nc3cc(CN4CCN(C)CC4)ccc3C)cc2)nc1-c1ccc(OC(F)(F)F)cc1 [Compound 52, 4-[5-Methoxy-4-(4-trifluoromethoxy-phenyl)-pyrimidin-2-ylamino]-N-[2-methyl-5-(4-methyl-piperazin-1-ylmethyl)-phenyl]-benzamide]
< 100 | < 100 | < 100 | CCN(CC)Cc1ccc(C)c(NC(=O)c2ccc(Nc3ncc(SC)c(-c4ccc(F)cc4)n3)c(F)c2)c1 [Compound 53, N-(5-Diethylaminomethyl-2-methyl-phenyl)-3-fluoro-4-[4-(4-fluoro-phenyl)-5-methylsulfanyl-pyrimidin-2-ylamino]-benzamide]
100 to 1000 | < 100 | 100 to 1000 | CSc1cnc(Nc2ccc(C(=O)Nc3cc(CN(C)C)ccc3C)cc2)nc1-c1ccc(OC(F)(F)F)cc1 [Compound 54, N-(5-Dimethylaminomethyl-2-methyl-phenyl)-4-[5-methylsulfanyl-4-(4-trifluoromethoxy-phenyl)-pyrimidin-2-ylamino]-benzamide]

From patent US10793542B2, “Hetroarylamine compounds for modulating the hedgehog pathway and preparing method and uses thereof” (DEVELOPMENT CENTER FOR BIOTECHNOLOGY, priority 2016, dated 2020)
